Values joined by “and” are separate entries in the source; they are usually repeats but may differ in a detail not shown here. Equal values may be shown once. Read-outs that look alike come from different tables or passages of the source.
Tested on: MvfR-regulated small molecules in PA14
Assay: Production of HAQs, 2-AA, DHQ and AA in PA14 cultures (LC-MS); as to AA: unit not given here
Conditions: for 2-AA / DHQ / HQNO / PQS / HHQ: Figure 5a; for 2-AA / DHQ / HQNO / PQS / HHQ / AA: replicates; for AA: Figure 5b; for activity at 50 µM / IC50 / inhibition at 50 µM: Pseudomonas aeruginosa

N#Cc1ccc(NC(=O)C(F)C(=O)Nc2ccc(Oc3ccccc3)cc2)cc1 (centres unmarked) [D88]
2-AA (Compound 1.56e-6 M): 57.52 and 53.71 and 61.03 | DHQ (Compound 1.56e-6 M): 42.56 and 47.41 and 47.02 | HQNO (Compound 1.56e-6 M): 65.26 and 66.09 and 66.02 | PQS (Compound 1.56e-6 M): 20.92 and 18.95 and 23.15 | 2-AA (Compound 3.13e-6 M): 77.80 and 71.94 and 73.15 | DHQ (Compound 3.13e-6 M): 23.18 and 25.25 and 33.98 | HHQ (Compound 3.13e-6 M): 18.71 and 27.16 and 24.99 | HQNO (Compound 3.13e-6 M): 83.76 and 83.46 and 82.00 | PQS (Compound 3.13e-6 M): 64.68 and 63.03 and 59.62 | 2-AA (Compound 6.25e-6 M): 94.51 and 93.72 and 94.23 | DHQ (Compound 6.25e-6 M): 82.36 and 85.39 and 83.09 | HHQ (Compound 6.25e-6 M): 97.83 and 98.02 and 97.82 | HQNO (Compound 6.25e-6 M): 95.97 and 95.46 and 95.76 | PQS (Compound 6.25e-6 M): 95.61 and 95.53 and 95.05 | 2-AA (Compound 1.25e-5 M): 96.17 and 96.56 and 95.88 | DHQ (Compound 1.25e-5 M): 89.15 and 89.66 and 90.01 | HHQ (Compound 1.25e-5 M): 98.67 and 99.17 and 97.08 | HQNO (Compound 1.25e-5 M): 97.36 and 97.63 and 97.60 | PQS (Compound 1.25e-5 M): 98.30 and 97.73 and 97.38 | 2-AA (Compound 2.5e-5 M): 96.54 (2×) and 95.16 | DHQ (Compound 2.5e-5 M): 90.35 and 91.27 and 89.56 | HHQ (Compound 2.5e-5 M): 99.13 (2×) and 96.58 | HQNO (Compound 2.5e-5 M): 97.58 and 97.87 and 97.81 | PQS (Compound 2.5e-5 M): 98.11 and 97.67 and 97.24 | 2-AA (Compound 5e-5 M): 97.65 and 97.17 and 97.36 | DHQ (Compound 5e-5 M): 92.04 and 92.63 and 92.02 | HHQ (Compound 5e-5 M): 98.82 and 99.10 and 99.16 | HQNO (Compound 5e-5 M): 98.11 and 98.35 and 97.80 | PQS (Compound 5e-5 M): 97.51 and 97.36 and 96.79 | AA (Compound 1.25E-05 M): 599.608 and 615.624 and 726.139 | AA (Compound 1.56E-06 M): 43.3838 and 42.5844 and 52.2801 | AA (Compound 1.95E-07 M): 66.4944 and 66.9002 and 61.8554 | AA (Compound 2.50E-05 M): 648.607 and 690.995 and 748.985 | AA (Compound 3.13E-06 M): 37.3675 and 38.4724 and 34.81 | AA (Compound 4.88E-08 M): 60.2138 and 71.5203 and 96.3706 | AA (Compound 5.00E-05 M): 538.963 and 599.424 and 657.09 | AA (Compound 6.25E-06 M): 537.56 and 609.034 and 598.829 | AA (Compound 7.81E-07 M): 70.2961 and 63.8933 and 86.4668 | AA (Compound 9.77E-08 M): 72.0385 and 90.409 and 103.511 | activity at 50 µM (PA14, read-out: % Production 2-AA): 7% | activity at 50 µM (PA14, read-out: % Production AA): 832% | activity at 50 µM (PA14, read-out: % Production DHQ): 7% | activity at 50 µM (PA14, read-out: % Production HHQ): 1% | activity at 50 µM (PA14, read-out: % Production HQNO): 14% | activity at 50 µM (PA14, read-out: % Production PQS): 4% | IC50 (PA14, read-out: AA, dose-dependent production (IC50 curve)): 4700 nM | inhibition at 50 µM (PA14, read-out: HHQ production inhibition): 89 to 99% | inhibition at 50 µM (PA14, read-out: HQNO production inhibition): 40 to 92% | IC50 (PA14, read-out: IC50 against 2-AA production): 1500 nM | IC50 (PA14, read-out: IC50 against DHQ production): 4140 nM | IC50 (PA14, read-out: IC50 against HHQ production): 3100 nM | IC50 (PA14, read-out: IC50 against HQNO production): 1300 nM | IC50 (PA14, read-out: IC50 against PQS production): 2100 nM | inhibition at 50 µM (PA14, read-out: PQS production inhibition): 76 to 97% | inhibition at 50 µM (PA14, read-out: inhibition of 2-AA production): 82 to 95% | inhibition at 50 µM (PA14, read-out: inhibition of DHQ production): 82 to 96%

From article PMC9428149, “Tackling recalcitrant Pseudomonas aeruginosa infections in critical illness via anti-virulence monotherapy” (Nature Communications, 2022)
